Experimental data as given in ChEMBL document CHEMBL5579892, “Rational Design, Synthesis, and Structure-Activity Relationship of a Novel Isoquinolinone-Based Series of HBV Capsid Assembly Modulators Leading to the Identification of Clinical Candidate AB-836” (J Med Chem, 2024).
Values after ≈ are worked out from the molar mass of the structure shown. Active and inactive are the calls of the source. No cut-off for these calls is given here.

Assays:
[1] = system: Hepatitis B virus; test: Antiviral activity against HBV infected in HepDE19 cells; type: functional, organism-based
[2] = Cytotoxicity against human HepDE19 cells by CellTiter-Glo analysis; type: toxicity, cell-based
[3] = Microsomal stability in mouse liver microsomes assessed as intrinsic clearance; type: ADME, Microsome; settings: read-out: CLH
[4] = Microsomal stability in human liver microsomes assessed as intrinsic clearance; type: ADME, Microsome; settings: read-out: CLH
[5] = Kinetic solubility in PBS at pH 7.4; type: physicochemical; settings: read-out: Kinetic_solubility
[6] = Half-life in CD-1 mouse at 10 mg/kg, po; type: ADME, organism-based; settings: in vivo
[7] = AUC (0 to infinity) in CD-1 mouse at 10 mg/kg, po; type: ADME, organism-based; settings: in vivo
[8] = Microsomal stability in rat liver microsomes assessed as intrinsic clearance; type: ADME, Microsome; settings: read-out: CLH
[9] = Microsomal stability in monkey liver microsomes assessed as intrinsic clearance; type: ADME, Macaca mulatta, Microsome; settings: rhesus monkey, read-out: CLH
[10] = Clearance in CD-1 mouse at 2 mg/kg, iv; type: ADME, organism-based; settings: in vivo
[11] = Drug concentration in CD-1 mouse liver at 10 mg/kg, po measured after 24 hrs; type: ADME, organism-based; settings: read-out: Ct
[12] = Drug concentration in CD-1 mouse liver assessed as fold increase in EC90 concentration required for antiviral activity against HBV infected in HepDE19 cells at 10 mg/kg, po measured after 24 hrs; type: ADME, organism-based; settings: in vivo
[13] = AUC (0 to infinity) in rat at 10 mg/kg, po; type: ADME, organism-based; settings: in vivo
[14] = AUC (0 to infinity) in monkey at 10 mg/kg, po; type: ADME, organism-based, Macaca mulatta; settings: rhesus monkey, in vivo
[15] = Clearance in rat at 2 mg/kg, iv; type: ADME, organism-based; settings: in vivo
[16] = Clearance in monkey at 2 mg/kg, iv; type: ADME, organism-based, Macaca mulatta; settings: rhesus monkey, in vivo
[17] = Half-life in rat at 10 mg/kg, po; type: ADME, organism-based; settings: in vivo
[18] = Half-life in monkey at 10 mg/kg, po; type: ADME, organism-based, Macaca mulatta; settings: rhesus monkey, in vivo
[19] = Drug concentration in rat liver at 10 mg/kg, po measured after 24 hrs; type: ADME, organism-based; settings: read-out: Ct
[20] = Drug concentration in rat liver assessed as fold increase in EC90 concentration required for antiviral activity against HBV infected in HepDE19 cells at 10 mg/kg, po measured after 24 hrs; type: ADME, organism-based; settings: in vivo
[21] = system: Hepatitis B virus; test: Antiviral activity against HBV infected in NOD.CB17-Prkdcscid/J mouse assessed as log10 reduction in viral DNA at 3 mg/kg, po administered once daily for 7 days by qPCR analysis; type: functional; settings: time 7 day
[22] = system: Hepatitis B virus; test: Antiviral activity against HBV infected in NOD.CB17-Prkdcscid/J mouse assessed as log10 reduction in viral DNA at 10 mg/kg, po administered once daily for 7 days by qPCR analysis; type: functional; settings: time 7 day
[23] = system: Hepatitis B virus; test: Antiviral activity against HBV infected in HepDE19 cells assessed as effect on pgRNA core protein at 1 uM; type: functional, organism-based
[24] = system: Hepatitis B virus; test: Antiviral activity against HBV infected in HepDE19 cells assessed as effect on capsid particle formation at 1 uM; type: functional, organism-based
[25] = system: Hepatitis B virus; test: Antiviral activity against HBV infected in HepG2-hNTCP-C4 cells assessed as inhibition of HBsAg formation preincubated with compound followed by viral infection; type: functional, organism-based
[26] = system: Hepatitis B virus; test: Antiviral activity against HBV infected in HepG2-hNTCP-C4 cells assessed as inhibition of cccDNA formation preincubated with compound followed by viral infection; type: functional, organism-based
[27] = system: Hepatitis B virus; test: Antiviral activity against HBV infected in HepG2-hNTCP-C4 cells assessed as inhibition of HBsAg formation preincubated with virus followed by compound addition; type: functional, organism-based
[28] = system: Hepatitis B virus; test: Antiviral activity against HBV infected in HepG2-hNTCP-C4 cells assessed as inhibition of cccDNA formation preincubated with virus followed by compound addition; type: functional, organism-based
[29] = target: T1, Cytochrome P450 1A2 (Homo sapiens, UniProt P05177); test: Inhibition of CYP1A2 (unknown origin); type: ADME
T1 sequence (P05177 whole entry): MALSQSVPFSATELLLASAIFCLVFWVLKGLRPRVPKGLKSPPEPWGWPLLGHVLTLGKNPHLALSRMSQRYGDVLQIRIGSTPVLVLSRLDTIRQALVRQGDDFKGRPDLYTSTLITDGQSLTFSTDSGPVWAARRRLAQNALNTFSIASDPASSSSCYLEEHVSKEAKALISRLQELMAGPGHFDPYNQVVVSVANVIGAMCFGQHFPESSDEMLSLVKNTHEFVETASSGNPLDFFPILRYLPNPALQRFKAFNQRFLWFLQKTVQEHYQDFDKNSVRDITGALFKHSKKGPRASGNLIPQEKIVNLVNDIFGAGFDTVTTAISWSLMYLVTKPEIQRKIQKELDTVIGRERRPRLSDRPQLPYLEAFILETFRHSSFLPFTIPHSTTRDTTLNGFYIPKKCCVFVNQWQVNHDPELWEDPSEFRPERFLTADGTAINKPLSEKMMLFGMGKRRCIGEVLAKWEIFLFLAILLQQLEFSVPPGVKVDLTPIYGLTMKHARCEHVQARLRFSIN

[30] = target: T2, Cytochrome P450 2B6 (Homo sapiens, UniProt P20813); test: Inhibition of CYP2B6 (unknown origin); type: ADME
T2 sequence (P20813 whole entry): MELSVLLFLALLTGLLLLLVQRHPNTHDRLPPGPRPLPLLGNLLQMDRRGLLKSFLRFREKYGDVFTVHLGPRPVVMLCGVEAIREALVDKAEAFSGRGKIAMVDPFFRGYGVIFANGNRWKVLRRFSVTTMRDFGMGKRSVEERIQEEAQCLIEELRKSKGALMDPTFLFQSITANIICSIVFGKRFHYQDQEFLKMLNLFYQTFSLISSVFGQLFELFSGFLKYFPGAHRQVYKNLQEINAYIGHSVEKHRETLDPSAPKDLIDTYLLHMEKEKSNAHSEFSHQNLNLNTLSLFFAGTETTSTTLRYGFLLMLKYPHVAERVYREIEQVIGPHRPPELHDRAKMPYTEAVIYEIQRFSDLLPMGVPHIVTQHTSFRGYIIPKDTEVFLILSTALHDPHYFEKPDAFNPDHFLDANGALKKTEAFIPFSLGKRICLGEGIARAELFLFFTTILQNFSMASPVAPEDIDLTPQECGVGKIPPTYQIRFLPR

[31] = target: Cytochrome P450 2C9 (Homo sapiens, UniProt P11712); test: Inhibition of CYP2C9 (unknown origin); type: ADME
Chain of Cytochrome P450 2C9 (P11712 whole entry): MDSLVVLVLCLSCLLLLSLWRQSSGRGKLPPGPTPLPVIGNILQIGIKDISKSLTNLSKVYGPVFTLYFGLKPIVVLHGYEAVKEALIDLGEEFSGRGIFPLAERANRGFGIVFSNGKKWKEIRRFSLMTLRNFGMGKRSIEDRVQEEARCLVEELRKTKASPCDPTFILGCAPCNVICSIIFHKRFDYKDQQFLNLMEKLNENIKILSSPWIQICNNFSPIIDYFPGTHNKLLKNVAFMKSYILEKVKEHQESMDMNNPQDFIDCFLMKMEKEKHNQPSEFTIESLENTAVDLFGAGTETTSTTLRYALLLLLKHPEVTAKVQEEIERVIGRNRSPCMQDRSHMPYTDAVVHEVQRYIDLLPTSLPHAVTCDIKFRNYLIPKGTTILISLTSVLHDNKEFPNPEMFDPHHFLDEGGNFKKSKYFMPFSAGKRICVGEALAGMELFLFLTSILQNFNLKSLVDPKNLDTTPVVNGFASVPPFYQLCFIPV

[32] = target: Cytochrome P450 2C19 (Homo sapiens, UniProt P33261); test: Inhibition of CYP2C19 (unknown origin); type: ADME
Chain of Cytochrome P450 2C19 (P33261 whole entry): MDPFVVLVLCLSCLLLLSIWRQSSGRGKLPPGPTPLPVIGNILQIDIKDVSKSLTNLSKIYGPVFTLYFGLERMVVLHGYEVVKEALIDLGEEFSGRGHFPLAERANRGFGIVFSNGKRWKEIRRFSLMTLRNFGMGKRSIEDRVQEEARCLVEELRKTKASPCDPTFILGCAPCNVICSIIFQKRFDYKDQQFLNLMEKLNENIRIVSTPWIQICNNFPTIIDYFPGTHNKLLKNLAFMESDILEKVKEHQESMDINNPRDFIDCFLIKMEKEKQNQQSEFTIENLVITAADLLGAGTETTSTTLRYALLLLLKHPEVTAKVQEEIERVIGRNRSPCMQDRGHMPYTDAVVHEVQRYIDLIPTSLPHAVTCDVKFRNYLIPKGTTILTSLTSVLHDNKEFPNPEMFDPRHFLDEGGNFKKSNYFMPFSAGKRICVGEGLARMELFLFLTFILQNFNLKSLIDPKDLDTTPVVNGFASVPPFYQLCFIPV

[33] = target: Cytochrome P450 2D6 (Homo sapiens, UniProt P10635); test: Inhibition of CYP2D6 (unknown origin); type: ADME
Chain of Cytochrome P450 2D6 (P10635 whole entry): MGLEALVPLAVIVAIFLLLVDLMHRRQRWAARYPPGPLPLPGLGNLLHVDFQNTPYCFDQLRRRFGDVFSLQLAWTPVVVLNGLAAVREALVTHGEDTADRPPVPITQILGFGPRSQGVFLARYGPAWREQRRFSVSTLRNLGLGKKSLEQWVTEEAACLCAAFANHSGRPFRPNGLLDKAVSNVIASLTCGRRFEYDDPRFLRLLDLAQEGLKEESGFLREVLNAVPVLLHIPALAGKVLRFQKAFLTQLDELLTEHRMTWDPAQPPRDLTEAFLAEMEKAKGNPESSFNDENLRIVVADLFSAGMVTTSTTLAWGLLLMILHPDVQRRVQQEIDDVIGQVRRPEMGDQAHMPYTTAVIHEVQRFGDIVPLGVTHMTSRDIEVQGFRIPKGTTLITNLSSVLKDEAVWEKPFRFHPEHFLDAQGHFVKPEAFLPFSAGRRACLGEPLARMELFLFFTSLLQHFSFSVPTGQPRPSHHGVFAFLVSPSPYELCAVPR

[34] = target: Cytochrome P450 3A4 (Homo sapiens, UniProt P08684); test: Inhibition of CYP3A4 (unknown origin); type: ADME
Chain of Cytochrome P450 3A4 (P08684 whole entry): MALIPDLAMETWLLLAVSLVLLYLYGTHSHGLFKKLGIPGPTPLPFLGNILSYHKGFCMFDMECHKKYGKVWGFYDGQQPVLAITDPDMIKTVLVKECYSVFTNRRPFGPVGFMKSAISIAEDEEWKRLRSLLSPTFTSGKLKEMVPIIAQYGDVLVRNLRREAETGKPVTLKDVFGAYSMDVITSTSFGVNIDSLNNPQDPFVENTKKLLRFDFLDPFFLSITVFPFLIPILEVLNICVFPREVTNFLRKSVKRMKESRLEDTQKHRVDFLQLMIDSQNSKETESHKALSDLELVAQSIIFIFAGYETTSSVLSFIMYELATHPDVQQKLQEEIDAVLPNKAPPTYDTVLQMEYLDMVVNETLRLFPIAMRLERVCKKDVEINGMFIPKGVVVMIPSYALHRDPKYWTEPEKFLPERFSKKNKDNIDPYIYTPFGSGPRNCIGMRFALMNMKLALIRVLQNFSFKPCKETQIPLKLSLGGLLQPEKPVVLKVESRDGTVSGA

[35] = Half-life in CD-1 mouse at 2 mg/kg, iv; type: ADME, organism-based; settings: in vivo
[36] = AUC (0 to infinity) in CD-1 mouse at 2 mg/kg, iv; type: ADME, organism-based; settings: in vivo
[37] = Oral bioavailability in CD-1 mouse at 10 mg/kg; type: ADME, organism-based; settings: in vivo
[38] = system: Hepatitis B virus; test: Antiviral activity against HBV infected in po dosed NOD.CB17-Prkdcscid/J mouse assessed as reduction in viral DNA administered once daily or twice daily for 7 days by qPCR analysis; type: functional, organism-based; settings: dose 3-30 mg/kg, time 7.0 day
[39] = system: Hepatitis B virus; test: Antiviral activity against HBV infected in NOD.CB17-Prkdcscid/J mouse assessed as log10 reduction in viral DNA at 30 mg/kg, po administered twice daily for 7 days by qPCR analysis; type: functional; settings: time 7 day
[40] = system: Hepatitis B virus; test: Antiviral activity against HBV infected in NOD.CB17-Prkdcscid/J mouse assessed as log10 reduction in viral DNA at 10 mg/kg, po administered twice daily for 7 days by qPCR analysis; type: functional; settings: time 7 day
[41] = system: Hepatitis B virus; test: Antiviral activity against HBV infected in NOD.CB17-Prkdcscid/J mouse assessed as log10 reduction in viral DNA at 30 mg/kg, po administered once daily for 7 days by qPCR analysis; type: functional; settings: time 7 day

Molecule `C[C@H](c1c[nH]c(=O)c2cc(F)c(F)cc12)N(C)C(=O)Nc1ccc(F)c(C#N)c1` has an EC50 [1] of 0.01 µM, a CC50 [2] of over 25 µM and a microsomal CLint [3] of 10 µL/min/mg. For the same molecule, the microsomal CLint [4] was 31 µL/min/mg, the solubility kinetic [5] was 120 µM (≈ 48 µg/mL) and the half-life [6] was 3.1 h. For the same molecule, the AUC(0-inf) [7] was 13000 ng·h/mL, the microsomal CLint [8] was 46 µL/min/mg and the microsomal CLint [9] was 34 µL/min/mg. For the same molecule, the clearance [10] was 13 mL/min/kg, the concentration at 24 h [11] was 395 ng/mL and the “fold change (FC)” value [12] was 25. The AUC(0-inf) [13] was 5740 ng·h/mL, the AUC(0-inf) [14] was 9270 ng·h/mL and the clearance [15] was 11 mL/min/kg. It also gave a clearance [16] of 9 mL/min/kg, a half-life [17] of 4.4 h and a half-life [18] of 14 h. The concentration at 24 h [19] was 334 ng/mL, the “fold change (FC)” value [20] was 20 and the “log(activity)” value [21] was 1.4. The “log(activity)” value [22] was 2.5, the Activity [23] was “inactive” and the Activity [24] was “inactive”. The EC50 [25] was 0.197 µM, the EC50 [26] was 0.175 µM and the Activity [27] was “inactive”. For the same molecule, the Activity [28] was “inactive”.
With `CC(c1c[nH]c(=O)c2ccccc12)N(C)C(=O)Nc1ccc(F)c(Cl)c1` (stereo not drawn) the EC50 [1] was 0.045 µM, the CC50 [2] was over 25 µM and the microsomal CLint [3] was 29 µL/min/mg. It also gave a microsomal CLint [4] of 44 µL/min/mg, an IC50 [29] of over 20 µM and an IC50 [30] of over 20 µM. The IC50 [31] was over 20 µM, the IC50 [32] was over 20 µM and the IC50 [33] was over 20 µM. It also gave an IC50 [34] of over 20 µM, a solubility kinetic [5] of 135 µM (≈ 50.5 µg/mL) and a half-life [6] of 2.2 h. For the same molecule, the half-life [35] was 2.4 h, the AUC(0-inf) [7] was 13800 ng·h/mL and the AUC(0-inf) [36] was 3520 ng·h/mL. For the same molecule, the bioavailability [37] was 80%, the Activity [38] was “Dose-Dependent Effect” and the “log(activity)” value [39] was 1.4. For the same molecule, the “log(activity)” value [40] was 0.6 and the “log(activity)” value [41] was 0.3.
